Like-named read-outs stand apart in the source and are kept apart here.
Molecular target: GST-Xa-hAAK1 (Homo sapiens (Human), UniProt Q2M2I8)
Test: biochemical
Experimental: The assays were performed in U-bottom 384-well plates. […] The reactions were initiated by the combination of bacterially expressed, GST-Xa-hAAK1 with substrates and test compounds. The reactions were incubated at room temperature for 3 hours and terminated by adding 60 μl of 35 mM EDTA buffer to each sample. The reactions were analyzed on the Caliper LabChip 3000 (Caliper, Hopkinton, Mass.) by electrophoretic separation of the fluorescent substrate and phosphorylated product. […] Compounds were dissolved at 10 mM in dimethylsulfoxide (DMSO) and evaluated at eleven concentrations. IC50 values were derived by non-linear regression analysis.

[1] = ATP 22 μM, GST-Xa-hAAK1 3.5 nM, room temperature for 3 hours, Caliper LabChip 3000, read-out: AAK1 IC50

Sequence of GST-Xa-hAAK1 (Q2M2I8 whole entry): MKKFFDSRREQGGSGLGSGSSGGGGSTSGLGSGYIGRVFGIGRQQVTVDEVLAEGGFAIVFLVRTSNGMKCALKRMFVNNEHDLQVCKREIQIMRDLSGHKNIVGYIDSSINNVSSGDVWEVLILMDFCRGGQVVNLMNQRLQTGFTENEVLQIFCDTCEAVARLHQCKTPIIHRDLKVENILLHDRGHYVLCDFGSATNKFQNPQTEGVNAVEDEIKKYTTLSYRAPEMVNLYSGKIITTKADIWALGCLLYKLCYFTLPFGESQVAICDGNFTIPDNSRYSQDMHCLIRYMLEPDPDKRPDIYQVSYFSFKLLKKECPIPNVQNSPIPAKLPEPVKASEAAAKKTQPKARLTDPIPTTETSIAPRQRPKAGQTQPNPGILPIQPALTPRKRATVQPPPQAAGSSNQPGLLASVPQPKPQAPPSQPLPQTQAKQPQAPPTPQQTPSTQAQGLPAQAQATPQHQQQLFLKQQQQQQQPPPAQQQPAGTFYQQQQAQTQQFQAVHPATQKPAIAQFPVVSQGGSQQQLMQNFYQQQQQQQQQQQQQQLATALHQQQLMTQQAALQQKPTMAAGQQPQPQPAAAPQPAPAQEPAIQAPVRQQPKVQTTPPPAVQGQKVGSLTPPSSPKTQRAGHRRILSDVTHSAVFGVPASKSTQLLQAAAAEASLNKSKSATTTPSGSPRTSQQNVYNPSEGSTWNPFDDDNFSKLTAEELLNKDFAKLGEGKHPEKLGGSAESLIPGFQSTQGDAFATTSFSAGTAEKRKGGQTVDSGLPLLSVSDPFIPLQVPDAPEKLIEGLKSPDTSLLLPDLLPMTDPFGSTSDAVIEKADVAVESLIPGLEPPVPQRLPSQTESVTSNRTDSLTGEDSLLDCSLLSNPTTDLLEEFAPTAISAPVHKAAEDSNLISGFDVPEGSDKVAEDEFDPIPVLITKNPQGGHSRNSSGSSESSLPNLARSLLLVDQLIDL

CC(C)CCc1nc2cc(-c3ccncc3)ccc2o1 [Example 89, 2-isopentyl-5-(pyridin-4-yl)benzo[d]oxazole]
IC50 [1]: 327 nM

c1cc(-c2ccc3oc(CC4CCCC4)nc3c2)ccn1 [Example 90, 2-(cyclopentylmethyl)-5-(pyridin-4-yl)benzo[d]oxazole]
IC50 [1]: 818 nM

NC(CC(C(F)(F)F)C(F)(F)F)c1nc2cc(-c3ccncc3)ccc2o1 (stereo not shown) [Example 91, 4,4,4-trifluoro-1-(5-(pyridin-4-yl)benzo[d]oxazol-2-yl)-3-(trifluoromethyl)butan-1-amine]
IC50 [1]: 391 nM

c1cc(-c2ccc3oc(CCC4CCCC4)nc3c2)ccn1 [Example 92, 2-(2-cyclopentylethyl)-5-(pyridin-4-yl)benzo[d]oxazole]
IC50 [1]: 1700 nM

NC(CCC(F)(F)F)c1nc2cc(-c3ccncc3)ccc2o1 (stereo not shown) [Example 93, 4,4,4-trifluoro-1-(5-(pyridin-4-yl)benzo[d]oxazol-2-yl)butan-1-amine]
IC50 [1]: 136 nM

COc1cnccc1-c1ccc2oc(C(N)CC(C)C)nc2c1 (stereo not shown) [Example 94, 1-(5-(3-methoxypyridin-4-yl)benzo[d]oxazol-2-yl)-3-methylbutan-1-amine]
IC50 [1]: 294 nM

CC(C)CC(N)c1nc2cc(-c3ccncc3)ccc2s1 (stereo not shown) [Example 95, 3-methyl-1-(5-(pyridin-4-yl)benzo[d]thiazol-2-yl)butan-1-amine]
IC50 [1]: 100 nM

CC(C)C[C@@H](N)c1nc2cc(-c3ccncc3)ccc2s1 [Example 96, (R)-3-methyl-1-(5-(pyridin-4-yl)benzo[d]thiazol-2-yl)butan-1-amine]
IC50 [1]: 797 nM

CC(C)C[C@H](N)c1nc2cc(-c3ccncc3)ccc2s1 [Example 97, (S)-3-methyl-1-(5-(pyridin-4-yl)benzo[d]thiazol-2-yl) butan-1-amine]
IC50: 116 nM

CC(C)CC(N)c1nc2ccc(-c3ccncc3)cc2s1 (stereo not shown) [Example 98, 3-methyl-1-(6-(pyridin-4-yl)benzo[d]thiazol-2-yl)butan-1-amine]
IC50: 44 nM

c1cc(-c2ccc3[nH]c(CC4CCCC4)nc3c2)ccn1 [Example 99, 2-(cyclopentylmethyl)-5-(pyridin-4-yl)-1H-benzo[d]imidazole]
IC50 [1]: 105 nM

CC(C)CCc1nc2ccc(-c3cnco3)cc2o1 [Example 100, 2-isopentyl-6-(oxazol-5-yl)benzo[d]oxazole]
IC50: 1020 nM

CN[C@H](CC(C)C)c1nc2ccc(-c3cnco3)cc2[nH]1 [Example 101, (R)-N,3-dimethyl-1-(6-(oxazol-5-yl)-1H-benzo[d]imidazol-2-yl) butan-1-amine]
IC50 [1]: 34 nM

COCCN[C@H](CC(C)C)c1nc2cc(-c3cnco3)ccc2[nH]1 [Example 102, (R)-N-(2-methoxyethyl)-3-methyl-1-(5-(oxazol-5-yl)-1H-benzo[d]imidazol-2-yl)butan-1-amine]
IC50 [1]: 680 nM

CC(C)CC(C)(N)c1nc2ccc(-c3cnco3)cc2[nH]1 (stereo not shown) [Example 103, 4-methyl-2-(6-(oxazol-5-yl)-1H-benzo[d]imidazol-2-yl)pentan-2-amine]
IC50 [1]: 158 nM

NC(CC(C(F)(F)F)C(F)(F)F)c1nc2ccc(-c3cnco3)cc2[nH]1 (stereo not shown) [Example 104, 4,4,4-trifluoro-1-(6-(oxazol-5-yl)-1H-benzo[d]imidazol-2-yl)-3-(trifluoromethyl)butan-1-amine]
IC50 [1]: 381 nM

NC(CCC(F)(F)F)c1nc2ccc(-c3cnco3)cc2[nH]1 (stereo not shown) [Example 105, 4,4,4-trifluoro-1-(6-(oxazol-5-yl)-1H-benzo[d]imidazol-2-yl)butan-1-amine]
IC50 [1]: 150 nM

CC(C)CCc1nc2ccc(-c3ccncc3)cc2[nH]1 [Example 106, 2-isopentyl-6-(pyridin-4-yl)-1H-benzo[d]imidazole]
IC50 [1]: 115 nM

CNC(CC(C)C)c1nc2cc(-c3cnco3)c(OC)cc2[nH]1 (stereo not shown) [Example 107, 1-(6-methoxy-5-(oxazol-5-yl)-1H-benzo[d]imidazol-2-yl)-N,3-dimethylbutan-1-amine]
IC50 [1]: 16 nM

COc1cc2[nH]c(C(C)(N)CC(C)C)nc2cc1-c1cnco1 (stereo not shown) [Example 108, 2-(6-methoxy-5-(oxazol-5-yl)-1H-benzo[d]imidazol-2-yl)-4-methylpentan-2-amine]
IC50 [1]: 60 nM

CN[C@H](CC(C)C)c1nc2cc(-c3ccnnc3)ccc2[nH]1 [Example 109, (R)-N,3-dimethyl-1-(5-(pyridazin-4-yl)-1H-benzo[d]imidazol-2-yl)butan-1-amine]
IC50 (read-out: AAK1 IC50): 428 nM

(R)-1-(5-(1H-pyrazolo[3, 4-b]pyridin-4-yl)-1H-benzo[d]imidazol-2-yl)-3-methylbutan-1-amine [Example 7]
IC50 [1]: 10 nM

From patent US10035777B2, “Heterocyclic kinase inhibitors” (priority 2014, dated 2018)
